Substitutions are numbered along the chain they refer to. Values joined by “and” are separate entries in the source; they are usually repeats but may differ in a detail not shown here. Equal values may be shown once.
What was measured:
[1] = tested on: WT PI5P4Kβ-reconstituted Pip4k2b^−/− cells; experiment: Cell viability after nigericin treatment; type: cell-based, mouse
Description: (§1) Next, treatment with microbial toxin nigericin, a selective K^+/H^+ exchanger that is activated in the lysosome and induces lysosome rupture and following cell death, was assessed. […] The autophagic flux in MEF, 293T, and HCT116 cells was decreased by Link17 treated cells (FIG. 7(A),(B)). In the isogenic MEFs, autophagy was decreased in Pip4k2b^−/− and F205L cells, compared to WT cells (FIG. 7(C)).

Pip4k2b^−/− cells = experiment: Nigericin-induced vacuolization; type: cell-based, mouse; conditions: within 4h after nigericin treatment
Description: (D) is a graph showing cytotoxic death by nigericin was suppressed in Pip4K2b^−/− cells and F205L-PI5P4Kβ-expressing Pip4K2b−/− cells.
as §1

[2] = tested on: WT PI5P4Kβ-reconstituted Pip4k2b^−/− cells; experiment: Nigericin-induced vacuolization; type: cell-based, mouse; conditions: within 4h after nigericin treatment
Description: as §1

PI5P4Kβ [3] = molecular target: T1, PI5P4Kβ (Homo sapiens, UniProt P78356); experiment: NMR-based PNT hydrolysis assay; type: biochemical; conditions: WT PI5P4Kβ
T1 sequence (P78356 1-416): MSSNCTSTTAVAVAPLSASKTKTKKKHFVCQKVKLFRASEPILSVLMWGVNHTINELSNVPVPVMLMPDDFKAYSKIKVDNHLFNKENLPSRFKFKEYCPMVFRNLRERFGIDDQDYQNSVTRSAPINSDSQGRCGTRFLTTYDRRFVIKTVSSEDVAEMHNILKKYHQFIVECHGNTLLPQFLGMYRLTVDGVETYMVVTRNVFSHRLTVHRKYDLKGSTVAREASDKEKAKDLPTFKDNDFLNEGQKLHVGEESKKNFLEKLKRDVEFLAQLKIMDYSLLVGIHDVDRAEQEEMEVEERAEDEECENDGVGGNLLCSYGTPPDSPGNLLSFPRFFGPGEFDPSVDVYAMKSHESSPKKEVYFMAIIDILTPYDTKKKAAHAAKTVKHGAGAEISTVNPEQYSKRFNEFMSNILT
Description: (A) The PNT hydrolysis activity of PI5P4Kβ. indicative of the kinase activity of PI5P4Kβ. was assessed by the signal intensity ratios of diphosphorylated/triphosphorylated nucleotides after the reaction. The average values from three experiments are shown with error bars (SD). Highly hydrolyzed nucleotides (>0.1 of the ratios) were shown for GTP, ITP, XTP, 6-thio-GTP, and 2a-ATP. (B), (C), and (D) show interactions of the PI5P4Kβ-ITP, PI5P4Kβ-XTP, and PI5P4Kβ-2a-ATP complexes, respectively. Dotted lines represent hydrogen bonds between the PNTs and PI5P4Kβ.
(§2) Next, the mechanism of the GTP preference of PI5P4Kβ was investigated using a series of ATP and GTP analogs. Based on analysis of the GTP-PI5P4Kβ interaction (FIG. 10(B)), 10 PNTs with different configurations at the 2nd and 6th positions of the purine base (NH2(2) and O(6) in guanine base, respectively) were chosen (FIG. 10(A)). The hydrolysis activities of PI5P4Kβ for these PNTs were quantified by an NMR-based assay (data not shown). […] On the other hand, O(6) seems to be required for the activity. […] This view is also supported by the larger energetic contribution of the O(6) moiety compared to the NH2(2) moiety in the FMO interaction analysis between GTP and PI5P4Kβ (FIG. 15).

PI5P4Kβ [4] = molecular target: T1, PI5P4Kβ; experiment: Competition assay of 32P-GTP-dependent PI(5)P phosphorylation by cold PNTs; type: biochemical; conditions: 250 μM 32P-GTP, 3.2-400 μM cold PNT
Description: (A) The kinase reaction was carried out in a total of 50 μl of reaction buffer (50 mM HEPES (pH 7.4), 0.2 mM EGTA, and 10 mM MgCl2) containing 20 μM of PI(5)P (d-myo-phosphatidylinositol 5-phosphate diC16) that was suspended by sonication. 250 μM of γ-^32P radiolabeled GTP was incubated with 1 μg of recombinant PI5P4Kβ for 10 min at room temperature. 20 μM of PI(5)P was used with 3 μM 1,2-dipalmitoyl-phosphatidylserine as the basal lipid. Phosphoinositides were extracted by a methanol/chloroform (1/1, v/v) mix and subjected to a thin-layer chromatography (TLC) assay using heat-activated 2% […] silica gel 60 plates. The solvent was 1-propanol/2 M acetic acid (65/35, v/v). In competition assay, 250 μM of ^32P-labeled GTP was mixed with 3.2-400 μM triphosphorylated nucleotides, and the PI(5)P phosphorylation by GTP was monitored by quantifying the amount of radiolabeled PI(4,5)P2. (B) Relative kinase activities in the presence of each PNT against those without them (i.e., only ^32P-GTP condition) are shown.
as §2

PI5P4KβF205L [5] = molecular target: T2, PI5P4KβF205L (Homo sapiens, UniProt P78356, F205L); experiment: PNT hydrolysis activity of mutant PI5P4Kβ; type: biochemical
T2 sequence (P78356 1-416 F205L): T1 sequence (P78356 1-416) with F205L
Description: (§3) (A)-(C) show PNT hydrolysis activity of mutant PI5P4Kβ as compared to the WT. The ratios of dephosphorylated/triphosphorylated nucleotides after reaction are shown. The N203A activity is almost negligible.
(§4) In addition, the hydrolysis activity of the mutants on four active triphosphorylated nucleotides were analyzed, XTP, ITP, 6-thio-GTP, and 2a-ATP. […] In the crystal structure of the PI5P4KβN203D-ITP complex, ITP binds in a similar manner as the WT.

PI5P4KβT201M [6] = molecular target: T3, PI5P4KβT201M (Homo sapiens, UniProt P78356, T201M); experiment: PNT hydrolysis activity of mutant PI5P4Kβ; type: biochemical
T3 sequence (P78356 1-416 T201M): T1 sequence (P78356 1-416) with T201M

PI5P4KβN203D = molecular target: T4, PI5P4KβN203D (Homo sapiens, UniProt P78356, N203D); experiment: PNT hydrolysis activity of mutant PI5P4Kβ; type: biochemical
T4 sequence (P78356 1-416 N203D): T1 sequence (P78356 1-416) with N203D
Description: as §3, §4

PI5P4KβF205L [7] = molecular target: T2, PI5P4KβF205L; conditions: F205L mutant; partly reported in Sumita et al., 2016; cited from earlier work
[8] = tested on: PI5P4Kβ with mutation of Asn-203; experiment: Nucleotide binding of Asn-203 mutant PI5P4Kβ
Description: The functional role of Asn-203 was analyzed, because this is the only invariant residue in the base-recognition loop of PI4P5K and PI5P4K.

PI5P4KβT201M [9] = molecular target: T3, PI5P4KβT201M; conditions: T201M mutant; partly reported in Sumita et al., 2016; cited from earlier work
PI5P4Kβ [10] = molecular target: T1, PI5P4Kβ; conditions: KM for GTP; cited from earlier work

Compound	hydrolysis activity of PI5P4Kβ (in words) (PI5P4Kβ [3])	inhibition of GTP-dependent PI(5)P phosphorylation activity (PI5P4Kβ [4])	hydrolysis activity compared to WT (PI5P4KβF205L [5])	hydrolysis activity compared to WT (PI5P4KβN203D)	further results
CO[C@@H]1C[C@@H](C[C@H]2CC[C@H](C)[C@H]([C@@H](C)C(=O)O)O2)O[C@]2(O[C@](C)([C@H]3CC[C@@](C)([C@@H]4O[C@@H]([C@H]5O[C@@](O)(CO)[C@H](C)C[C@@H]5C)C[C@@H]4C)O3)C[C@H]2C)[C@@H]1C [nigericin]					cell viability [1]: decreased cell viability; hypervacuolization after nigericin treatment (Pip4k2b^−/− cells): not; hypervacuolization after nigericin treatment [2]: hypervacuolization was observed
Nc1nc(=S)c2ncn([C@@H]3O[C@H](COP(=O)(O)OP(=O)(O)OP(=O)(O)O)[C@H](O)C3O)c2[nH]1 (stereo partly shown) [6-thio-GTP]	substantial activity	strongly inhibited	less active		
Nc1nc(N)c2ncn([C@@H]3O[C@H](COP(=O)(O)OP(=O)(O)OP(=O)(O)O)[C@@H](O)[C@H]3O)c2n1 [2a-ATP]	substantial activity		not affected	significantly reduced	hydrolysis activity compared to WT (PI5P4KβT201M [6]): more active
O=P(O)(O)OP(=O)(O)OP(=O)(O)OC[C@H]1O[C@@H](n2cnc3c(O)ncnc32)[C@H](O)[C@@H]1O [ITP, inosine triphosphate]	substantial activity	strongly inhibited	less active	hyperactive	hydrolysis activity compared to GTP (PI5P4Kβ [3]): 1.3 times
O=c1[nH]c(=O)c2ncn([C@@H]3O[C@H](COP(=O)(O)OP(=O)(O)OP(=O)(O)O)[C@@H](O)[C@H]3O)c2[nH]1 [XTP, xanthosine triphosphate]	substantial activity	strongly inhibited	diminished susceptibility	significantly reduced	hydrolysis activity compared to GTP (PI5P4Kβ [3]): 1.9 times
Nc1nc(Cl)c2ncn(C3OC(COP(=O)(O)OP(=O)(O)OP(=O)(O)O)C(O)C3O)c2n1 (stereo not shown) [2a-6C1-PTP]	very low hydrolysis activity				
Nc1ncnc2c1ncn2[C@@H]1O[C@H](COP(=O)(O)OP(=O)(O)OP(=O)(O)O)[C@@H](O)[C@H]1O [ATP]			not affected	significantly reduced	nucleotide-dependent kinase activity (PI5P4KβF205L [7]): comparable to that of WT PI5P4Kβ; hydrolysis activity compared to WT (PI5P4KβT201M [6]): more active; binding of nucleotide [8]: markedly reduced the binding; nucleotide-dependent kinase activity (PI5P4KβT201M [9]): higher ATP-dependent activity
COc1nc(N)nc2c1ncn2[C@@H]1O[C@H](COP(=O)(O)OP(=O)(O)OP(=O)(O)O)[C@@H](O)[C@H]1O [O6-me-GTP]	very low hydrolysis activity				
Nc1nc2c(ncn2[C@@H]2O[C@H](COP(=O)(O)OP(=O)(O)OP(=O)(O)O)[C@@H](O)[C@H]2O)c(=O)[nH]1 [GTP, guanosine triphosphate]			less active	significantly reduced	Km (PI5P4Kβ [10]): ~100 µM and ~88 µM; nucleotide-dependent kinase activity (PI5P4KβF205L [7]): reduction of the GTP-dependent activity; binding of nucleotide [8]: markedly reduced the binding; nucleotide-dependent kinase activity (PI5P4KβT201M [9]): decreased GTP-dependent kinase activity

From patent US20230096781A1, “METHODS OF CONTROLLING BODYWEIGHT BY MODULATING PHOSPHATIDYLINOSITOL 5-PHOSPHATE 4-KINASE BETA ACTIVITY” (University of Cincinnati, priority 2020, published 2023)
